Measured values reported in patent US12398132B2, “Derivatives of 4-(imidazo[1,2-a]pyridin-3-yl)-n-(pyridinyl)pyrimidin-2-amine as therapeutic agents” (AUCENTRA THERAPEUTICS PTY LTD, priority 2019, dated 2025).
Positions count from the first letter of the chain named.

What was measured:
[1] = target: T1, FLT3(D835Y) (Homo sapiens, UniProt P36888, D835Y); experiment: ADP Glo kinase assay, FLT3(D835Y); assay type: biochemical; conditions: apparent Ki calculated from Km (ATP) and IC50, read-out: FLT3 inhibition Ki
T1 sequence (P36888 27-993 D835Y): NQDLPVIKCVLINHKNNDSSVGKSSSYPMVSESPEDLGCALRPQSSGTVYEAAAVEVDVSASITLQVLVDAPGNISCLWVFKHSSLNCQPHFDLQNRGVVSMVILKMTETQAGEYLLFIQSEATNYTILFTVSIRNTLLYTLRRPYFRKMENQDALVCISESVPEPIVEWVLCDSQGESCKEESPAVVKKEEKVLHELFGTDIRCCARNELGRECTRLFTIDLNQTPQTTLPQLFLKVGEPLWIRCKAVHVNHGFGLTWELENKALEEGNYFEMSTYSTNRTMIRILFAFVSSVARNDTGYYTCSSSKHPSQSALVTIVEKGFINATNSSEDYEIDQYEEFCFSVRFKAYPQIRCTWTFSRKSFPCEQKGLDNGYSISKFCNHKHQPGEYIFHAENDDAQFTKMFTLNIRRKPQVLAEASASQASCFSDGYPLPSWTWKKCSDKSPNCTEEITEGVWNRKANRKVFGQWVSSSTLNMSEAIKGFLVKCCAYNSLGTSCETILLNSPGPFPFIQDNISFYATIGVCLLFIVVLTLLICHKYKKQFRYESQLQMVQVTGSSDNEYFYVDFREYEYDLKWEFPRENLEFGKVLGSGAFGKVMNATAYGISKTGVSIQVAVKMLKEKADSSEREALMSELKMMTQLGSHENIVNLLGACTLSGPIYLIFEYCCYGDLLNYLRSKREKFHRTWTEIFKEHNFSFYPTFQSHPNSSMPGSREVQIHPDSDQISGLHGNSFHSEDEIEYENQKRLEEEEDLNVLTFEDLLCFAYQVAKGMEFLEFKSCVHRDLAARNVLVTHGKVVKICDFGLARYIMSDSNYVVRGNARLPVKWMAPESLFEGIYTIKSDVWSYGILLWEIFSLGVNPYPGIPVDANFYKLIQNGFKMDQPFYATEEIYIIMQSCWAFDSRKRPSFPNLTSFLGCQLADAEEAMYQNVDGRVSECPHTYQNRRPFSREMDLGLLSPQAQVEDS

[2] = target: T2, FLT3(ITD) (Homo sapiens, UniProt P36888); experiment: ADP Glo kinase assay, FLT3(ITD); assay type: biochemical; conditions: apparent Ki calculated from Km (ATP) and IC50, read-out: FLT3 inhibition Ki
T2 sequence (P36888 1-993): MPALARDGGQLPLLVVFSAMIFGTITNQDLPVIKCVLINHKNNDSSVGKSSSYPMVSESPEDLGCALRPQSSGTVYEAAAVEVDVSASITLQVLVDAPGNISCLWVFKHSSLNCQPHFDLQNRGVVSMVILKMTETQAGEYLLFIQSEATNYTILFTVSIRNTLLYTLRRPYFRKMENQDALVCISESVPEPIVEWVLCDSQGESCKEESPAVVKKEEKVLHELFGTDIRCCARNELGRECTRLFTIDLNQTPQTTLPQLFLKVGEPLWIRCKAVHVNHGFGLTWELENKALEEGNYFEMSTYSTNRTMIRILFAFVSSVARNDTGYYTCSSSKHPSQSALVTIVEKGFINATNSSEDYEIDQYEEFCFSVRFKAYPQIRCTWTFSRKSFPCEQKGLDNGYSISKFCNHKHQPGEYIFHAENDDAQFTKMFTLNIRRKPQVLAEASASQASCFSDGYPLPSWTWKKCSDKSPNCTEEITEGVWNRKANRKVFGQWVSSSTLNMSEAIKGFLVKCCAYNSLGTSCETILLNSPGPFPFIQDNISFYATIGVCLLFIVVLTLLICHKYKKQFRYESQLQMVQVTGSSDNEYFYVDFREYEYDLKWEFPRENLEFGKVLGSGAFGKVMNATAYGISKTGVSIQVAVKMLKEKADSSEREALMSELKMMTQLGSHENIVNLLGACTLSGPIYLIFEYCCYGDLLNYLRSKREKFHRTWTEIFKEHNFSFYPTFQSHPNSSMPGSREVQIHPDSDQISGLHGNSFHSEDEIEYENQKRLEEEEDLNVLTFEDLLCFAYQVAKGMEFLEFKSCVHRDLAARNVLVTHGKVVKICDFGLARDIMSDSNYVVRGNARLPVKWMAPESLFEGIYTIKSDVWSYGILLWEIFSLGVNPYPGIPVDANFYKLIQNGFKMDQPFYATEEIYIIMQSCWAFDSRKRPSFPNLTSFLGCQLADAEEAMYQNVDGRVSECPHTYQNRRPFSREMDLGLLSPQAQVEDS

[3] = target: T3, FLT3(WT) (Homo sapiens, UniProt P36888); experiment: ADP Glo kinase assay, FLT3(WT); assay type: biochemical; conditions: apparent Ki calculated from Km (ATP) and IC50, read-out: FLT3 inhibition Ki
T3 sequence (P36888 27-993): T1 sequence (P36888 27-993 D835Y) with Y809D
Experimental: Inhibition of FLT3(WT), FLT3(ITD) and FLT3(D835Y) and CDKs were determined using ADP Glo Kinase assays (Promega Corporation, Madison, WI, USA). […] The kinase reactions are run for an optimised time period (FLT3-WT: 120 min, FLT3-ITD: 80 min, FLT3-D835Y: 100 min) at room temperature and then the reaction was stopped by adding 5 μL of ADP Glo reagent. […] Positive and negative controls were performed in 0.5% DMSO in the presence and absence of each FLT3 kinase, respectively. […] Half-maximal inhibition (IC50) values were calculated using a 4-parameter logistic non-linear regression model with Graphpad prism (Version 6.0). Apparent inhibition constants (Ki) values were calculated from Km (ATP) and IC50 values for the respective kinases.

[4] = target: CDK2E1 (Homo sapiens, UniProt P24941); conditions: 1 µM
[5] = test system: MV-4-11; experiment: Proliferation assay (resazurin/MTT), MV-4-11; assay type: cell-based; conditions: Homo sapiens, MV4-11, read-out: 72 h Growth inhibition GI50, MV-4-11 cells
[6] = test system: U937; experiment: Proliferation assay (resazurin/MTT), U937; assay type: cell-based; conditions: Homo sapiens, U-937, read-out: 72 h Growth inhibition GI50, U937 cells
[7] = target: CDK9/CyclinT1 (Homo sapiens, UniProt P50750); experiment: ADP Glo kinase assay, CDK9/CyclinT1; assay type: biochemical; conditions: CDK9T1; apparent Ki calculated from Km (ATP) and IC50; read-out: CDK inhibition Ki
Chain of CDK9/CyclinT1 (P50750 whole entry, species assumed): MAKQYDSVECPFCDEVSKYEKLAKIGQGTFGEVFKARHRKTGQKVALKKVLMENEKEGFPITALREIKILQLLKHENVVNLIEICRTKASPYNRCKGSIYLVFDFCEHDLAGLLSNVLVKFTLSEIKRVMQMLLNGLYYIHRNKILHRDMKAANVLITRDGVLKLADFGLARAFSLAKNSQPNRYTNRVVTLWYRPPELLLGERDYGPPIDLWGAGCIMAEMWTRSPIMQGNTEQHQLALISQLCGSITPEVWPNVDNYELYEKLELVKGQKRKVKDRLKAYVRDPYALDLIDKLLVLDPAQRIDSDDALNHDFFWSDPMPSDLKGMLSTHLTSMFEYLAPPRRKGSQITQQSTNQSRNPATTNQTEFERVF
Chain of CDK9/CyclinT1 (O60563 whole entry partner, species assumed): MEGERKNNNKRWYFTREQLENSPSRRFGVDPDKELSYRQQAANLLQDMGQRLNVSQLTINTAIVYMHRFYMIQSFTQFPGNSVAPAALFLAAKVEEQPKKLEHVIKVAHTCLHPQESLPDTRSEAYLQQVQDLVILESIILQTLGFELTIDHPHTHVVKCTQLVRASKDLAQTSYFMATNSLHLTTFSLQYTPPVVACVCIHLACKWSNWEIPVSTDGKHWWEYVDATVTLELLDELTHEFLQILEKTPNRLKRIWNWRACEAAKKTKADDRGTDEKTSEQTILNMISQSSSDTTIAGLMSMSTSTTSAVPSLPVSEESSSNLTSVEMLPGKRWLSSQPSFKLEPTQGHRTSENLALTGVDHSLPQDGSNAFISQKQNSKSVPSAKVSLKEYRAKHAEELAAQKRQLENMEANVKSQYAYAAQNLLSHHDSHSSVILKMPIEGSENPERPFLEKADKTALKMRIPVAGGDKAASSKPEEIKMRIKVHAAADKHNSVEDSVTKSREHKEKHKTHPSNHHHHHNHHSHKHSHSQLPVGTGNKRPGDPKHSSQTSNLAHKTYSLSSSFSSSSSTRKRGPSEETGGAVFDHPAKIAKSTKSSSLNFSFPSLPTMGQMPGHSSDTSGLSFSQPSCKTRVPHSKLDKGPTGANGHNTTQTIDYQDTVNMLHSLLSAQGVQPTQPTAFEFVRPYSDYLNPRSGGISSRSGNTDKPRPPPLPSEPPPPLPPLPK
Experimental: Inhibition of FLT3(WT), FLT3(ITD) and FLT3(D835Y) and CDKs were determined using ADP Glo Kinase assays (Promega Corporation, Madison, WI, USA). […] Similarly, kinase reaction for CDK4/D1 and CDK6/D3 was performed with reaction buffer (40 nM Tris base pH 7.5, 20 mM MgCl2, 0.4 mM DTT), 0.1 mg/ml BSA and RB-CTF substrate (retinoblastoma protein1 C-terminal fraction). For CDK9/CyclinT1, the kinase reaction was performed with the standard assay buffer and Kinase Dilution Buffer and RBER-IRStide substrate. Half-maximal inhibition (IC50) values were calculated using a 4-parameter logistic non-linear regression model with Graphpad prism (Version 6.0). Apparent inhibition constants (Ki) values were calculated from Km (ATP) and IC50 values for the respective kinases.

Row | Structure (SMILES) | Ki [1] | Ki [2] | Ki [3] | activity [4] | GI50 [5] | GI50 [6] | Ki [7]
1 | Clc1ccc(Nc2nccc(-c3cnc4ccccn34)n2)nc1 [Cmpd 52, N-(5-Chloropyridin-2-yl)-4-(imidazo[1,2-a]pyridin-3-yl)pyrimidin-2-amine] | 584 nM | 421 nM | > 500 nM | 52% | 213 nM | 691 nM | –
2 | Ic1ccc(Nc2nccc(-c3cnc4ccccn34)n2)nc1 [Cmpd 53, 4-(Imidazo[1,2-a]pyridin-3-yl)-N-(5-iodopyridin-2-yl)pyrimidin-2-amine] | > 500 nM | > 500 nM | > 500 nM | 99% | 382 nM | 2500 nM | –
3 | CC(=O)N1CCN(c2ccc(Nc3nccc(-c4cnc5ccc(-c6cnn(C7CCN(C(=O)OC(C)(C)C)CC7)c6)cn45)n3)nc2)CC1 [Cmpd 60, Tert-butyl 4-(4-(3-(2-((5-(4-acetylpiperazin-1-yl)pyridin-2-yl)amino)pyrimidin-4-yl)imidazo[1,2-a]pyridin-6-yl)-1H-pyrazol-1-yl)piperidine-1-carboxylate] | – | 84 nM | – | – | 19 nM | 243 nM | –
4 | CC(=O)N1CCN(c2ccc(Nc3nccc(-c4cnc5ccc(C6=CCN(C(=O)OC(C)(C)C)CC6)cn45)n3)nc2)CC1 [Cmpd 63, Tert-butyl 4-(3-(2-((5-(4-acetylpiperazin-1-yl)pyridin-2-yl)amino)pyrimidin-4-yl)imidazo[1,2-a]pyridin-6-yl)-3,6-dihydropyridine-1(2H)-carboxylate] | – | 132 nM | – | – | 35 nM | 436 nM | –
5 | CC(C)(C)OC(=O)N1CC=C(c2ccc(Nc3nccc(-c4cnc5ccccn45)n3)nc2)CC1 [Cmpd 64, Tert-butyl 6-((4-(imidazo[1,2-a]pyridin-3-yl)pyrimidin-2-vi)amino)-3′,6′-dihydro-[3,4′-bipyridine]-1′(2′H)-carboxylate] | – | 308 nM | – | – | 152 nM | 367 nM | –
6 | CN1CCN(c2ccc(Nc3nccc(-c4cnc5ccc(-c6cncnc6)cn45)n3)nc2)CC1 [Cmpd 66, N-(5-(4-Methylpiperazin-1-yl)pyridin-2-yl)-4-(6-(pyrimidin-5-yl)imidazo[1,2-a]pyridin-3-yl)pyrimidin-2-amine] | – | 116 nM | – | 80% | 174 nM | 1090 nM | 345 nM
7 | CCN1CCN(Cc2ccc(Nc3ncc(F)c(-c4cnc5ccc(-c6ccccc6)cn45)n3)nc2)CC1 [Cmpd 68, N-(5-((4-Ethylpiperazin-1-yl)methyl)pyridin-2-yl)-5-fluoro-4-(6-phenylimidazo[1,2-a]pyridin-3-yl)pyrimidin-2-amine] | – | 70 nM | – | – | 117 nM | 600 nM | –

Now those with a lower Ki [2], led by results:

Row | Ki [1] | Ki [2] | Ki [3] | activity [4] | GI50 [5] | GI50 [6] | Ki [7] | Structure (SMILES)
8 | – | 6 nM | – | – | 4 nM | 728 nM | – | CC(=O)N1CCN(c2ccc(Nc3nccc(-c4cnc5ccc(-c6cc[nH]n6)cn45)n3)nc2)CC1 [Cmpd 57, 1-(4-(6-((4-(6-(1H-Pyrazol-3-yl)imidazo[1,2-a]pyridin-3-yl)pyrimidin-2-yl)amino)pyridin-3-yl)piperazin-1-yl)ethan-1-one]
9 | – | 49 nM | – | – | 9 nM | 206 nM | – | CC(=O)N1CCN(c2ccc(Nc3nccc(-c4cnc5ccc(-c6ccn(C)n6)cn45)n3)nc2)CC1 [Cmpd 58, 1-(4-(6-((4-(6-(1-Methyl-1H-pyrazol-3-yl)imidazo[1,2-a]pyridin-3-yl)pyrimidin-2-yl)amino)pyridin-3-yl)piperazin-1-yl)ethan-1-one]
10 | – | 18 nM | – | – | 8 nM | 462 nM | – | CC(=O)N1CCN(c2ccc(Nc3nccc(-c4cnc5ccc(-c6cnn(C(F)F)c6)cn45)n3)nc2)CC1 [Cmpd 59]
11 | – | 4 nM | – | – | < 0.1 nM | 199 nM | – | CC(=O)N1CCN(c2ccc(Nc3nccc(-c4cnc5ccc(-c6ccc(C)o6)cn45)n3)nc2)CC1 [Cmpd 61, 1-(4-(6-((4-(6-(5-Methylfuran-2-yl)imidazo[1,2-a]pyridin-3-yl)pyrimidin-2-yl)amino)pyridin-3-yl)piperazin-1-yl)ethan-1-one]
12 | – | 29 nM | – | – | 6 nM | 773 nM | – | CN1CCN(c2ccc(Nc3nccc(-c4cnc5ccc(-c6cnn(C)c6)cn45)n3)nc2)CC1 [Cmpd 62, 4-(6-(1-Methyl-1H-pyrazol-4-yl)imidazo[1,2-a]pyridin-3-yl)-N-(5-(4-methylpiperazin-1-yl)pyridin-2-yl)pyrimidin-2-amine]
13 | – | 30 nM | – | – | 32 nM | 382 nM | – | CN1CCN(c2ccc(Nc3nccc(-c4cnc5ccc(-c6cccnc6)cn45)n3)nc2)CC1 [Cmpd 65, N-(5-(4-Methylpiperazin-1-yl)pyridin-2-yl)-4-(6-(pyridin-3-yl)imidazo[1,2-a]pyridin-3-yl)pyrimidin-2-amine]
14 | – | 16 nM | – | – | 18 nM | 946 nM | – | CN(C)C1CCN(c2ccc(Nc3ncc(F)c(-c4cnc5ccc(-c6ccccc6)cn45)n3)nc2)CC1 [Cmpd 69, N-(5-(4-(Dimethylamino)piperidin-1-yl)pyridin-2-yl)-5-fluoro-4-(6-phenylimidazo[1,2-a]pyridin-3-yl)pyrimidin-2-amine]
